Results as given in PMC4685510, “A Cell Biologist’s Field Guide to Aurora Kinase Inhibitors” (Frontiers in Oncology, 2015).
Like-named read-outs stand apart in the source and are kept apart here.

Columns and labels:
Assay in all cases: biochemical
Assay type in all cases: biochemical
[1] = biological target: 363 human kinases (including Aurora A/B/C) (Homo sapiens, UniProt P43405); conditions: SYK; for remaining activity at 0.1 µM: 100 nM; for remaining activity at 0.1 µM / remaining activity at 0.5 µM: read-out: % Enzyme Activity (relative to DMSO controls)
From the text: (§1) However, the Aurora A/B selectivity ratios derived from our in vitro and in vivo data can be compared to prioritize inhibitors.

[2] = biological target: T1, 363 human kinases (including Aurora A/B/C) (Homo sapiens, UniProt P29320); conditions: EPHA3, [ATP] 50 µM; for remaining activity at 0.1 µM: 100 nM; for remaining activity at 0.1 µM / remaining activity at 0.5 µM: read-out: % Enzyme Activity (relative to DMSO controls)
T1 sequence (P29320 21-983): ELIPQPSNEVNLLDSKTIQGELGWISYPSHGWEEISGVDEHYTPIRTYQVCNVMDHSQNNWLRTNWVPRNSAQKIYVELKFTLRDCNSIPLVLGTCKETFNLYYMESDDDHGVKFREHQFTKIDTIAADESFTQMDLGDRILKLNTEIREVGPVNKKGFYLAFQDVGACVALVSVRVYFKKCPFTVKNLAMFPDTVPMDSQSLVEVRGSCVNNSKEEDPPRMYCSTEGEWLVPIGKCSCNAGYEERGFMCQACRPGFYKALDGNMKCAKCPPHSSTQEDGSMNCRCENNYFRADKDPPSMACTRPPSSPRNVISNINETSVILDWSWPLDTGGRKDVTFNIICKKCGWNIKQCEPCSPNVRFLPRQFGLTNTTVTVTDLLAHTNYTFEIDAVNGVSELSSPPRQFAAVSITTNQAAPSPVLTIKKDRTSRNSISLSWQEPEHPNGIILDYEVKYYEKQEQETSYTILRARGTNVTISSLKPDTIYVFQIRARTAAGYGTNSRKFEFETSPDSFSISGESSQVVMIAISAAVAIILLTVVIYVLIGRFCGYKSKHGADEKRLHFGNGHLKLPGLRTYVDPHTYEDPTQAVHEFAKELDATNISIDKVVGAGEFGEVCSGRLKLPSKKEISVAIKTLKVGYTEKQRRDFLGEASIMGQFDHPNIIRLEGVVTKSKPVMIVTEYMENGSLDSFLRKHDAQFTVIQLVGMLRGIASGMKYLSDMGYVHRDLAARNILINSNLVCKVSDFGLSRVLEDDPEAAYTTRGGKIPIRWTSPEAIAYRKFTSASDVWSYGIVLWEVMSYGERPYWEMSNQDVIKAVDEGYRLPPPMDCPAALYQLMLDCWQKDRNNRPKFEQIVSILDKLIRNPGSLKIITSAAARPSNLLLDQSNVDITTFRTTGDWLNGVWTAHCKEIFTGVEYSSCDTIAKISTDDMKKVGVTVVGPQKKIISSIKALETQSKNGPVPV
From the text: as §1

[3] = biological target: 363 human kinases (including Aurora A/B/C) (Homo sapiens, UniProt P11802); conditions: for remaining activity at 0.1 µM: 100 nM; for remaining activity at 0.1 µM / remaining activity at 0.5 µM: read-out: % Enzyme Activity (relative to DMSO controls); for % Enzyme Activity (relative to DMSO controls) / remaining activity at 0.5 µM: 500 nM
From the text: as §1

[4] = biological target: T2, 363 human kinases (including Aurora A/B/C) (Homo sapiens, UniProt Q8IVH8); conditions: GLK/MAP4K3; for remaining activity at 0.1 µM: 100 nM; for remaining activity at 0.1 µM / remaining activity at 0.5 µM: read-out: % Enzyme Activity (relative to DMSO controls)
T2 sequence (Q8IVH8 1-894): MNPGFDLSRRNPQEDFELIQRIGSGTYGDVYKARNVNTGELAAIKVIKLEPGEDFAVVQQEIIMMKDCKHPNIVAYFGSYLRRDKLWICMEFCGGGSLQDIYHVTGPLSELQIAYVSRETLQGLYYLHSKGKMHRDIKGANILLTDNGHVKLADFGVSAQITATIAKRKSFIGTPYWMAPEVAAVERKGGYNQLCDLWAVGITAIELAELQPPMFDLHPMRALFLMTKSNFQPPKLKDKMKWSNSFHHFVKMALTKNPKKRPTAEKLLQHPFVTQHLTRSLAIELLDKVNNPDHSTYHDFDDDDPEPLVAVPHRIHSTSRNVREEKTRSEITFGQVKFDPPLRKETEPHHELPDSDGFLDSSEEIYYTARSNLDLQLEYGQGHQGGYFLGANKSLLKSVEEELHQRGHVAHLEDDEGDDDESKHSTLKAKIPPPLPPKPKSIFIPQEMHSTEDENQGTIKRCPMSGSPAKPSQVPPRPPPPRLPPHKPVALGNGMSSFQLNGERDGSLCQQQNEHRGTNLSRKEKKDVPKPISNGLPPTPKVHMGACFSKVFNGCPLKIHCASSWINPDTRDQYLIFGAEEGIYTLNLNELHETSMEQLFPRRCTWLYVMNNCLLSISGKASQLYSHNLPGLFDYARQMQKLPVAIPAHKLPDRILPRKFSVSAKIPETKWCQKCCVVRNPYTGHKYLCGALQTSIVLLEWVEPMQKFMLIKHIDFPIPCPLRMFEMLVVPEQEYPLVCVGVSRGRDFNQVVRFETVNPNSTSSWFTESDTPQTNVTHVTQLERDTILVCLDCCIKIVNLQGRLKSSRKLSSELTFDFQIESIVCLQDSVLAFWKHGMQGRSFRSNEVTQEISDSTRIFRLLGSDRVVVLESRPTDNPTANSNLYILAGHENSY
From the text: as §1

[5] = biological target: T3, 363 human kinases (including Aurora A/B/C) (Homo sapiens, UniProt Q02156); conditions: PKCepsilon; for remaining activity at 0.1 µM: 100 nM; for remaining activity at 0.1 µM / remaining activity at 0.5 µM: read-out: % Enzyme Activity (relative to DMSO controls)
T3 sequence (Q02156 1-737): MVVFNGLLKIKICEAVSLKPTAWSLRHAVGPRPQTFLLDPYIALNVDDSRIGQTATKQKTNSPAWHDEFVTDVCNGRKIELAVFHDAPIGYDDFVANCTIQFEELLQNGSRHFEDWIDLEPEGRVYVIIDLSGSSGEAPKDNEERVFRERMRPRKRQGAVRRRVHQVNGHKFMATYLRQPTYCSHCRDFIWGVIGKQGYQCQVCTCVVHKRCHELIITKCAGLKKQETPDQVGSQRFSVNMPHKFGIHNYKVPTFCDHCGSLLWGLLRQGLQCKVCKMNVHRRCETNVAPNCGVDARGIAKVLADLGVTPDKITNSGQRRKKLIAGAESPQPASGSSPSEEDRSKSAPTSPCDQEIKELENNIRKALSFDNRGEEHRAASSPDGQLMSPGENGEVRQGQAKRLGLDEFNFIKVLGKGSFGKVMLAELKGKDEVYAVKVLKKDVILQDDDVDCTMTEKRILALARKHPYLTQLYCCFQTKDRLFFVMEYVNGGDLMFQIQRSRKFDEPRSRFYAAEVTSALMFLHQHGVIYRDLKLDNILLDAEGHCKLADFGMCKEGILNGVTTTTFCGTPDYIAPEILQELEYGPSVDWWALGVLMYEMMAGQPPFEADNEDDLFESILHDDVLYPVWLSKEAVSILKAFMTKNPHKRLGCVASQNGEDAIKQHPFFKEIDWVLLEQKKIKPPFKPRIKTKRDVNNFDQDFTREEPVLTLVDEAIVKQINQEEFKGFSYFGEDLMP
From the text: as §1

[6] = biological target: 363 human kinases (including Aurora A/B/C) (Homo sapiens, UniProt Q13164); conditions: ERK5/MAPK7, [ATP] 5 µM; for remaining activity at 0.1 µM: 100 nM; for remaining activity at 0.1 µM / remaining activity at 0.5 µM: read-out: % Enzyme Activity (relative to DMSO controls)
Sequence of 363 human kinases (including Aurora A/B/C) (Homo sapiens, UniProt Q13164) (Q13164 whole entry): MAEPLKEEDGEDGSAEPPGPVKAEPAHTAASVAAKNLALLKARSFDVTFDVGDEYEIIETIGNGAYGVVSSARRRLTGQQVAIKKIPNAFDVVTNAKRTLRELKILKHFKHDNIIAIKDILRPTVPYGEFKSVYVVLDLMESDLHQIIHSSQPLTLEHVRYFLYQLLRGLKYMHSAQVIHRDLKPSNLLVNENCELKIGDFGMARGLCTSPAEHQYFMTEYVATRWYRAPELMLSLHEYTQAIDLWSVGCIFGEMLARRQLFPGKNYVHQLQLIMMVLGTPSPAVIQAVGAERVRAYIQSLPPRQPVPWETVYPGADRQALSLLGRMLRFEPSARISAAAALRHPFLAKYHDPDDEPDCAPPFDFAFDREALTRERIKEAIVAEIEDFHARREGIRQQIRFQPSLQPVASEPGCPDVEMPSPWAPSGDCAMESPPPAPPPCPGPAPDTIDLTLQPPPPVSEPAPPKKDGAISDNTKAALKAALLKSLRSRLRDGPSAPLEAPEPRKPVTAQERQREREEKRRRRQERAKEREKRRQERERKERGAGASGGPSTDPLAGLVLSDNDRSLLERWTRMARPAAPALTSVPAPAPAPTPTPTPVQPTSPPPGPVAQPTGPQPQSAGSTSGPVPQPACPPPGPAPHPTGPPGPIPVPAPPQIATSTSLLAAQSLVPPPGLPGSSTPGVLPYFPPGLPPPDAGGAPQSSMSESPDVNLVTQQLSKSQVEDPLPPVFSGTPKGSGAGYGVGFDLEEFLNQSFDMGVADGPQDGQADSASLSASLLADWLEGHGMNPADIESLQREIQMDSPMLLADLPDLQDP
From the text: as §1

Sequence of 363 human kinases (including Aurora A/B/C) (Homo sapiens, UniProt P11802) (P11802 whole entry): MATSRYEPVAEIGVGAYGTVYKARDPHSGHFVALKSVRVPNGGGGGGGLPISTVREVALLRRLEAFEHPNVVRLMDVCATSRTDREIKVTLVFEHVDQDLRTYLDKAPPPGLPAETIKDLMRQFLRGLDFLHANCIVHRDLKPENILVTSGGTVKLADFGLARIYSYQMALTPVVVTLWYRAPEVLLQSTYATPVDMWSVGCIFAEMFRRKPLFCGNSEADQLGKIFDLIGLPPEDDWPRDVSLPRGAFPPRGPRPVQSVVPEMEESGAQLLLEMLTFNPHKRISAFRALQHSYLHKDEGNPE

Structure (SMILES) | remaining activity at 0.1 µM [1] [%] | remaining activity at 0.1 µM [2] [%] | remaining activity at 0.1 µM ([3]; CDK4/cyclin D1, [ATP] 30 µM) [%] | remaining activity at 0.1 µM ([3]; CDK4/cyclin D3, [ATP] 15 µM) [%] | remaining activity at 0.1 µM [4] [%] | remaining activity at 0.1 µM [5] [%] | remaining activity at 0.1 µM [6] [%] | remaining activity at 0.5 µM ([1]; 500 nM) [%] | remaining activity at 0.5 µM ([2]; 500 nM) [%] | remaining activity at 0.5 µM ([3]; CDK4/cyclin D1, [ATP] 30 µM) [%] | remaining activity at 0.5 µM ([3]; CDK4/cyclin D3, [ATP] 15 µM) [%] | remaining activity at 0.5 µM ([4]; 500 nM) [%] | remaining activity at 0.5 µM ([5]; 500 nM) [%] | remaining activity at 0.5 µM ([6]; 500 nM) [%] | further results
CCn1cc(-c2ccnc3[nH]c(-c4cccc(CN(C)C)c4)cc23)c(-c2ccc(NC(=O)N(C)C)cc2)n1 [GSK1070916] | 84.8 | 93.1 | 97.5 | 95.6 | 88.3 | 102 | 97.6 | – | – | – | – | – | – | – | –
O=C(c1cccc(Cl)c1F)N1CCN(Cc2cccc(Nc3nccs3)n2)CC1 [MK-8745] | – | – | – | – | – | – | – | 83.2 | 85.5 | 97.2 | 93.1 | 88.7 | 120 | 89 | % Enzyme Activity (relative to DMSO controls) ([1]; 500 nM): 82.70%; % Enzyme Activity (relative to DMSO controls) ([2]; 500 nM): 84.89%; % Enzyme Activity (relative to DMSO controls) ([3]; CDK4/cyclin D1, [ATP] 30 µM): 96.49%; % Enzyme Activity (relative to DMSO controls) ([3]; CDK4/cyclin D3, [ATP] 15 µM): 93.01%; % Enzyme Activity (relative to DMSO controls) ([4]; 500 nM): 88.41%; % Enzyme Activity (relative to DMSO controls) ([5]; 500 nM): 120.37%; % Enzyme Activity (relative to DMSO controls) ([6]; 500 nM): 88.71%
O=C(O)[C@]1(Cc2cccc(Nc3nccs3)n2)CC[C@@H](Oc2cccc(Cl)c2F)CC1 [MK-5108] | 93.8 | 67.4 | 96.4 | 99 | 103 | 111 | 95.3 | 63.6 | 31.4 | 96.1 | 98.8 | 82.7 | 101 | 95.4 | –
